The target of series [1] is T1, Alpha-2C adrenergic receptor (Homo sapiens) (UniProt P18825).
T1 sequence (whole entry): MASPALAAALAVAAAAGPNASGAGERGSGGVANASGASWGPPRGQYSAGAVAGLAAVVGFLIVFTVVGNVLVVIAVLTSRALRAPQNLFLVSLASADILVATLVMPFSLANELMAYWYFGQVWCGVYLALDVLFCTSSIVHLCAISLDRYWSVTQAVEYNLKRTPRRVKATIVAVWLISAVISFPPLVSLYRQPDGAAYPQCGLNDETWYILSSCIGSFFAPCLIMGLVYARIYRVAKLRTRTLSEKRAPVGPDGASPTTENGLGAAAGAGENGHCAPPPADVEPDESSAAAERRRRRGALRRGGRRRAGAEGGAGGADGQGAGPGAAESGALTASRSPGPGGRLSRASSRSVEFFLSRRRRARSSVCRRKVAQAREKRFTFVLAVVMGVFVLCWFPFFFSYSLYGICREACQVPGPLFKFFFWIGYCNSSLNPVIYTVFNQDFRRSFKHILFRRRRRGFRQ
Briefly: Antagonist activity at alpha2c-adrenoceptor (unknown origin) assessed as reduction in adrenaline-induced response by measuring equilibrium binding constant. As to conditions: filed as antagonist.

A short description of series [2]: Metabolic stability in rat hepatocytes assessed as clearance per 10^6 cells at 1 uM. As to conditions: read-out: CLH. The series is classed as ADME, cell-based, Hepatocyte.
Series [3] can be described thus: Solubility of the compound in pH 7.4 buffer. The series is classed as physicochemical.
Series [4] deals with T2, Alpha-2A adrenergic receptor (Homo sapiens) (UniProt P08913).
T2 sequence (whole entry): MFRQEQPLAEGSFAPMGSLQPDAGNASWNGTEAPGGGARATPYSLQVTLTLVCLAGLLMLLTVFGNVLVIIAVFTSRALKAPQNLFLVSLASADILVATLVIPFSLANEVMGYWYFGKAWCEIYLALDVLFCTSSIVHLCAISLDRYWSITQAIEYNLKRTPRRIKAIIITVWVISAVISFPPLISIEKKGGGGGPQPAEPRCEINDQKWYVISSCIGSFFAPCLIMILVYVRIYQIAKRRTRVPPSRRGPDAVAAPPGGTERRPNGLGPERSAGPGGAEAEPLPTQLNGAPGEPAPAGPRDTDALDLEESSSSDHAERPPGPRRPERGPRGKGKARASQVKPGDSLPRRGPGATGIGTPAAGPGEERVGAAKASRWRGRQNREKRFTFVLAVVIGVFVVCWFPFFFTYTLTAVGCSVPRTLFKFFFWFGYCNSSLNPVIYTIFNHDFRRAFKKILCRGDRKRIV
The series is described as follows: Antagonist activity at alpha2a-adrenoceptor (unknown origin) assessed as reduction in adrenaline-induced response by measuring equilibrium binding constant. As to conditions: filed as antagonist.

Series [5] in a line: Metabolic stability in human hepatocytes assessed as clearance per 10^6 cells at 1 uM. The class given is ADME, cell-based, Hepatocyte. As to conditions: read-out: CLH.
The species entered for another series is Homo sapiens. Briefly: Selectivity index, ratio of Kb for antagonist activity at alpha2a-adrenoceptor (unknown origin) to Kb for antagonist activity at alpha2c-adrenoceptor (unknown origin).
A short description of series [6]: Lipophilicity, logD of the compound. The series is classed as physicochemical. Particulars: octanol/water.
A short description of series [7]: Permeability across basolateral to apical side in human Caco-2 cells. The class given is ADME, cell-based. Particulars: read-out: permeability. (In general: Passage across Caco-2 layers is used to estimate intestinal permeability.)
A short description of series [8]: Unbound fraction in rat plasma at 1 mg/kg, po. The series is classed as ADME, organism-based.
Series [9] in a line: Tmax in rat brain at 1 mg/kg, po. The class given is ADME, organism-based.
The nature of series [10]: Unbound brain-to-plasma concentration ratio in rat at 1 mg/kg, po. Particulars: brain and plasma, read-out: K(p,uu,brain). The class given is ADME, organism-based.
Series [11] is described as follows: Permeability across apical to basolateral side in human Caco-2 cells. The series is classed as ADME, cell-based. Particulars: read-out: permeability.
Series [12] is described as follows: Efflux ratio of permeability across basolateral to apical side over apical to basolateral side in human Caco-2 cells. The series is classed as ADME, cell-based.
A short description of series [13]: Tmax in rat plasma at 1 mg/kg, po. The class given is ADME, organism-based.
A short description of series [14]: Cmax in rat brain at 1 mg/kg, po. More on the design: dose 1 mg/kg, route po. The class given is ADME, organism-based.
Series [15] is described as follows: Unbound fraction in rat brain at 1 mg/kg, po. The class given is ADME, organism-based.
Series [16] is described as follows: AUC (0 to 6 hrs) in rat plasma at 1 mg/kg, po. The class given is ADME, organism-based. Set-up: dose 1 mg/kg, route po.
A short description of series [17]: AUC (0 to 6 hrs) in rat brain at 1 mg/kg, po. More on the design: dose 1 mg/kg, route po. The series is classed as ADME, organism-based.
Series [18] in a line: Unbound Cmax in rat plasma at 1 mg/kg, po by rapid equilibrium dialysis method. The class given is ADME, organism-based. As to conditions: in vivo. For orientation: Equilibrium dialysis compares concentrations on both sides of a semipermeable membrane.
The nature of series [19]: Cmax in rat plasma at 1 mg/kg, po. The series is classed as ADME, organism-based. Set-up: dose 1 mg/kg, route po.
Series [20] is described as follows: Unbound Cmax in rat brain at 1 mg/kg, po by rapid equilibrium dialysis method. The series is classed as ADME, organism-based. Particulars: in vivo.

In brackets after ≈: the same amount, converted by molar mass.

In the case of `CC1CCN(c2nsnc2N2CCN(C[C@H]3COc4ccccc4O3)CC2)C1=O` (stereo not given in full), the Kb in [1] worked out at 0.04 nM; in series [4] it was 449 nM. Moreover, the values for the hepatocyte CLint at 1 µM in series [2] and in series [5] were 73.7 µL/min/1e6 cells and 6.3 µL/min/1e6 cells, respectively. This compound also displayed a solubility in series [3] of 395 µM (≈ 164 µg/mL). Further, the Ratio in the series listed under Homo sapiens turned out to be 11200. In addition, in series [6], the logD amounted to 2.8.
Take `CN(C)C(=O)c1nsnc1N1CCN(C[C@H]2COc3ccccc3O2)CC1`: the Kb in [1] is 0.09 nM; in series [4] it was 449 nM. For the same compound, the figures for the hepatocyte CLint at 1 µM in [2] and in series [5] were 30 µL/min/1e6 cells and 1.75 µL/min/1e6 cells, respectively. Besides, the solubility in series [3] was found to be 719 µM (≈ 280 µg/mL). In addition, the Ratio in the series listed under Homo sapiens is 4990. The compound also registered a logD in series [6] of 2.5.
Regarding `c1ccc2c(c1)OC[C@H](CN1CCN(c3nsnc3Nc3ccncn3)CC1)O2`, the results for the Kb in [1] and in [4] were 0.01 nM and 459 nM, respectively. Besides, the hepatocyte CLint at 1 µM in series [2] was 29.3 µL/min/1e6 cells; in series [5], 14.2 µL/min/1e6 cells. In addition, the Ratio in the series filed under Homo sapiens came out at 45900.
Consider `O=C1CCCN1c1cccnc1N1CCN(C[C@H]2COc3ccccc3O2)CC1`, for which the antagonist equilibrium constant (Kb) in series [1] came to 0.01 nM; in series [4], 44.9 nM. Further, in the series filed under Homo sapiens, the Ratio was 4490.
For the compound `O=C1NCCN1c1nsnc1N1CCN(C[C@H]2COc3ccccc3O2)CC1`, the results for the Kb in series [1] and in series [4] were 0.076 nM and 449 nM, respectively. In addition, the hepatocyte CLint at 1 µM in series [2] and in series [5] was 1.8 µL/min/1e6 cells in each case. Besides, the Ratio in the series listed under Homo sapiens came to 5930.
Turning to `CC1(C)CCN(c2nsnc2N2CCN(C[C@H]3COc4ccccc4O3)CC2)C1=O`, the antagonist dissociation constant (Kb) in [1] came out at 0.01 nM; in series [4] it was 449 nM. Moreover, the results for the hepatocyte CLint at 1 µM in series [2] and in [5] were 128 µL/min/1e6 cells and 18.1 µL/min/1e6 cells, respectively. Besides, in [3], the concentration in solution (solubility) came to 133 µM (≈ 57.1 µg/mL). In addition, the Ratio in the series filed under Homo sapiens is 44900. Moreover, the logD in series [6] came to 3.1.
`O=C1CCCN1c1nsnc1N1CCN(C[C@H]2COc3ccccc3O2)CC1`: the Papp B→A in series [7] was found to be 443 nm/s. For the same compound, the antagonist dissociation constant (Kb) in series [1] was found to be 0.05 nM; in series [4], 282 nM. Moreover, the fraction unbound in series [8] came to 0.185; in series [15] it was 0.104. Further, the hepatocyte CLint at 1 µM in series [2] came to 16.2 µL/min/1e6 cells; in series [5] it was 8.2 µL/min/1e6 cells. Besides, the Tmax in series [9] and in series [13] was 15 min throughout. In addition, in [10], the Kp uu amounted to 0.45. Also, in series [3], the concentration in solution (solubility) was 822 µM (≈ 330 µg/mL). Further, the Papp A→B in series [11] stood at 736 nm/s. The efflux ratio in [12] was 0.6. In addition, the figures for the highest concentration (Cmax) in series [14] and in series [19] were 101 ng/g and 0.113 µg/mL, respectively. Moreover, the values for the exposure AUC(0-t) in series [16] and in [17] were 0.189 µg·h/mL and 0.14 µg·h/mL, respectively. For the same compound, the fCmax was 52 nM in series [18] and 26 nM in series [20]. In addition, in the series filed under Homo sapiens, the Ratio stood at 5380. In series [6], this compound returned a pH-dependent lipophilicity (logD) of 2.2.
With `CN1CCN(c2nsnc2N2CCN(C[C@H]3COc4ccccc4O3)CC2)C1=O`, the figures for the Kb in series [1] and in [4] were 108 nM and 449 nM, respectively. In the series filed under Homo sapiens, the Ratio was 4.15.
Take `Cc1c(N2CCNC2=O)c(N2CCN(C[C@H]3COc4ccccc4O3)CC2)nn1C`: in series [7], the Papp B→A came to 214 nm/s. Also, the values for the antagonist equilibrium constant (Kb) in series [1] and in series [4] were 0.06 nM and 449 nM, respectively. The hepatocyte CLint at 1 µM in series [2] and in series [5] was 1.8 µL/min/1e6 cells each time. The compound also came in with a solubility in series [3] of 114 µM (≈ 47 µg/mL). Further, in series [11], the Papp A→B stood at 29 nm/s. The efflux ratio in series [12] stood at 7.5. Moreover, in the series listed under Homo sapiens, the Ratio stood at 7480.
As to `COc1scnc1N1CCN(C[C@H]2COc3ccccc3O2)CC1`, the antagonist equilibrium constant (Kb) in series [1] stood at 0.01 nM; in series [4] it was 88.3 nM. The hepatocyte CLint at 1 µM came out at 54.4 µL/min/1e6 cells in series [2] and 14.3 µL/min/1e6 cells in series [5]. The same compound displayed a solubility in series [3] of 445 µM (≈ 155 µg/mL). Moreover, the Ratio in the series filed under Homo sapiens amounted to 8830. This compound registered a log distribution coefficient (logD) in series [6] of 2.3.
In the case of `COCc1cccnc1N1CCN(C[C@H]2COc3ccccc3O2)CC1` [ORM-13070], the antagonist dissociation constant (Kb) in series [1] was 0.03 nM; in series [4] it was 130 nM. The solubility in [3] was found to be 176 µM (≈ 62.6 µg/mL). Also, the Ratio in the series filed under Homo sapiens was determined as 4330. This compound also yielded a pH-dependent lipophilicity (logD) in series [6] of 3.3.
For `Oc1cccc([C@H]2CCCN(C[C@H]3COc4ccccc4O3)C2)c1`, the fraction unbound in series [8] and in series [15] was below 0.01 each time. Further, the values for the AUC(0-t) in [16] and in [17] were 0.009 µg·h/mL and 0.014 µg·h/mL, respectively. The fCmax in [18] is below 0.06 nM; in [20], below 0.09 nM.
As for `O=C1CCCN1c1ncsc1N1CCN(C[C@H]2COc3ccccc3O2)CC1`, in series [7], the Papp B→A came to 243 nm/s. For the same compound, the Kb in series [1] was 0.04 nM; in [4] it was 317 nM. Further, the hepatocyte CLint at 1 µM in series [2] is 5 µL/min/1e6 cells; in series [5], 3.6 µL/min/1e6 cells. Further, the solubility in series [3] amounted to 1130 µM (≈ 451 µg/mL). In addition, the Papp A→B in series [11] worked out at 424 nm/s. In addition, the efflux ratio in [12] worked out at 0.6. The Ratio in the series filed under Homo sapiens was determined as 7940. The same compound yielded a logD in series [6] of 1.9.

For orientation: Kb means the equilibrium dissociation constant of an antagonist, usually derived from a functional assay. The term solubility denotes how much of the substance goes into solution per volume. Higher therefore signals a readily soluble substance. As a reminder, the logD is the decadic logarithm of the distribution of all forms, ionised or not, between an organic phase and buffer at a given pH. A word on the fraction unbound: it is the share of the substance not bound to proteins or other matrix. The low end stands for little free substance, the high end for much free substance. A word on the Tmax: it is the time from dosing to the highest level. One may read the efflux ratio as the permeability from basolateral to apical divided by that in the opposite direction, in the common usage. A word on the Cmax: it is the maximum level reached in the sampled fluid or tissue. One may read the AUC(0-t) as the area under the concentration-time curve up to a stated or last time point. Read a high AUC(0-t) as more exposure.

Source of the values: ChEMBL document CHEMBL5236573, “Development of benzodioxine-heteroarylpiperazines as highly potent and selective α2c antagonists” (Bioorg Med Chem Lett, 2022).
